Test results as given in patent publication US20240299385A1 (ReWind Therapeutics NV, priority 2021, published 2024).

What follows are compounds tested against T1, human GPR17 receptor (Homo sapiens, UniProt Q13304) (assay: Calcium mobilization functional assay (Fluo-8, FLIPR TETRA) in HEK-293 hGPR17 (Gα-q assay)). Conditions: antagonism of MDL29,951 (~EC80) induced Ca2+ signal; cell line (HEK-293 hGPR17 or HEK-293 Suchi5 hGPR17) not given.
T1 construct: host or cells: HEK-293
Assay type: cell-based
In short: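 Fluo-8-loaded HEK-293 hGPR17 cells (60 min dye loading, room temperature) were preincubated with compound for twenty minutes, then challenged with agonist MDL29,951 at ~EC80, 500 nM. Intracellular calcium release via Gα-q was recorded as FLIPR fluorescence for a further 2 minutes; compounds tested in duplicate.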

T1 sequence (Q13304 whole entry): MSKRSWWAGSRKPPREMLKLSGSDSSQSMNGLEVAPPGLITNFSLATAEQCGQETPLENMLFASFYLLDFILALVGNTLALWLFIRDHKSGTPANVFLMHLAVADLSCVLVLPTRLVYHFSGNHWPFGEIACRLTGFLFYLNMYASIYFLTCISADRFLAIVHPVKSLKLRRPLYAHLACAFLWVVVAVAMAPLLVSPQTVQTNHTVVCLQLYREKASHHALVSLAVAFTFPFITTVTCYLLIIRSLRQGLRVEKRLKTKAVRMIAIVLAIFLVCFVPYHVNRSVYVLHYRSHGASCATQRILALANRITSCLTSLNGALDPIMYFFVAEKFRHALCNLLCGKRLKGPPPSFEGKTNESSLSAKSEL

Row | IC50 | Structure (SMILES)
1 | 5000 to 50000 nM | N#Cc1ccc(NS(=O)(=O)c2c[nH]cc2Cc2ccc(C(F)(F)F)cc2)c(F)c1 [Cpd 387, N-(4-cyano-2-fluorophenyl)-4-[[4-(trifluoromethyl)phenyl]methyl]-1H-pyrrole-3-sulfonamide]
2 | 500 to 5000 nM | N#Cc1ccc(NS(=O)(=O)c2c[nH]cc2Cc2ccccc2OC(F)(F)F)c(F)c1 [Cpd 388, N-(4-cyano-2-fluorophenyl)-4-[[2-(trifluoromethoxy)phenyl]methyl]-1H-pyrrole-3-sulfonamide]
3 | 5000 to 50000 nM | N#Cc1ccc(NS(=O)(=O)c2c[nH]cc2Cc2ccc(OC(F)(F)F)cc2)c(F)c1 [Cpd 389, N-(4-cyano-2-fluorophenyl)-4-[[4-(trifluoromethoxy)phenyl]methyl]-1H-pyrrole-3-sulfonamide]
4 | < 500 nM | N#Cc1ccc(NS(=O)(=O)c2c[nH]cc2Cc2cccc(Br)c2)c(F)c1 [Cpd 391, 4-[(3-bromophenyl)methyl]-N-(4-cyano-2-fluorophenyl)-1H-pyrrole-3-sulfonamide]
5 | < 500 nM | N#Cc1ccc(NS(=O)(=O)c2c[nH]cc2Cc2ccsc2)c(F)c1 [Cpd 392, N-(4-cyano-2-fluorophenyl)-4-(thiophen-3-ylmethyl)-1H-pyrrole-3-sulfonamide]
6 | < 500 nM | O=S(=O)(Nc1cc(F)c(C(F)(F)F)cc1F)c1c[nH]c(-c2cc(F)ccc2F)c1 [Cpd 393, 5-(2,5-difluorophenyl)-N-[2,5-difluoro-4-(trifluoromethyl)phenyl]-1H-pyrrole-3-sulfonamide]
7 | < 500 nM | COc1c(Cl)cccc1-c1cc(S(=O)(=O)Nc2ccc(C#N)cc2F)c[nH]1 [Cpd 394, 5-(3-chloro-2-methoxyphenyl)-N-(4-cyano-2-fluorophenyl)-1H-pyrrole-3-sulfonamide]
8 | < 500 nM | N#Cc1ccc(NS(=O)(=O)c2c[nH]c(-c3nccc4ccccc34)c2)c(F)c1 [Cpd 396, N-(4-cyano-2-fluorophenyl)-5-isoquinolin-1-yl-1H-pyrrole-3-sulfonamide]
9 | 500 to 5000 nM | N#Cc1ccc(NS(=O)(=O)c2c[nH]c(-c3ccccc3OC3CC3)c2)c(F)c1 [Cpd 397, N-(4-cyano-2-fluorophenyl)-5-(2-cyclopropyloxyphenyl)-1H-pyrrole-3-sulfonamide]
10 | 500 to 5000 nM | N#Cc1ccc(NS(=O)(=O)c2c[nH]cc2-c2cccs2)c(F)c1 [Cpd 398, N-(4-cyano-2-fluorophenyl)-4-thiophen-2-yl-1H-pyrrole-3-sulfonamide]
11 | 500 to 5000 nM | O=S(=O)(Nc1cc(OC(F)F)c(Cl)cc1F)c1c[nH]c(-c2ccccc2)c1 [Cpd 399, N-[4-chloro-5-(difluoromethoxy)-2-fluorophenyl]-5-phenyl-1H-pyrrole-3-sulfonamide]
12 | 500 to 5000 nM | N#Cc1ccc(NS(=O)(=O)c2c[nH]cc2-c2ccsc2)c(F)c1 [Cpd 400, N-(4-cyano-2-fluorophenyl)-4-thiophen-3-yl-1H-pyrrole-3-sulfonamide]
13 | < 500 nM | Cc1cc(-c2c[nH]cc2S(=O)(=O)Nc2ccc(C#N)cc2F)cs1 [Cpd 401, N-(4-cyano-2-fluorophenyl)-4-(5-methylthiophen-3-yl)-1H-pyrrole-3-sulfonamide]
14 | 5000 to 50000 nM | N#Cc1ccc(NS(=O)(=O)c2c[nH]cc2-c2cccc(C3CC3)c2)c(F)c1 [Cpd 402, N-(4-cyano-2-fluorophenyl)-4-(3-cyclopropylphenyl)-1H-pyrrole-3-sulfonamide]
15 | < 500 nM | O=S(=O)(Nc1cc(F)c(OC(F)F)cc1F)c1c[nH]c(-c2nccs2)c1 [Cpd 403, N-[4-(difluoromethoxy)-2,5-difluorophenyl]-5-(1,3-thiazol-2-yl)-1H-pyrrole-3-sulfonamide]
16 | < 500 nM | O=S(=O)(Nc1cc(F)c(OC(F)F)cc1F)c1c[nH]c(-c2ncccc2F)c1 [Cpd 404, N-[4-(difluoromethoxy)-2,5-difluorophenyl]-5-(3-fluoropyridin-2-yl)-1H-pyrrole-3-sulfonamide]
17 | < 500 nM | N#Cc1cc(F)c(NS(=O)(=O)c2c[nH]cc2Cc2ccccc2)cc1F [Cpd 407, 4-benzyl-N-(4-cyano-2,5-difluorophenyl)-1H-pyrrole-3-sulfonamide]
18 | 500 to 5000 nM | O=S(=O)(Nc1ncc(OC(F)F)cc1F)c1c[nH]c(-c2ccccc2)c1 [Cpd 408, N-[5-(difluoromethoxy)-3-fluoropyridin-2-yl]-5-phenyl-1H-pyrrole-3-sulfonamide]
19 | < 500 nM | O=S(=O)(Nc1cc(F)c(OC(F)F)cc1F)c1c[nH]c(-c2ccccc2F)c1 [Cpd 409, N-[4-(difluoromethoxy)-2,5-difluorophenyl]-5-(2-fluorophenyl)-1H-pyrrole-3-sulfonamide]
20 | 500 to 5000 nM | O=S(=O)(Nc1cc(F)c(OC(F)F)cc1F)c1c[nH]c(-c2cc(Cl)ccc2F)c1 [Cpd 410, 5-(5-chloro-2-fluorophenyl)-N-[4-(difluoromethoxy)-2,5-difluorophenyl]-1H-pyrrole-3-sulfonamide]
21 | 500 to 5000 nM | O=S(=O)(Nc1cc(F)c(OC(F)F)cc1F)c1c[nH]c(-c2ccc(F)cc2)c1 [Cpd 411, N-[4-(difluoromethoxy)-2,5-difluorophenyl]-5-(4-fluorophenyl)-1H-pyrrole-3-sulfonamide]

Row | IC50 | Structure (SMILES)
22 | 500 to 5000 nM | O=S(=O)(Nc1cc(F)c(OC(F)F)cc1F)c1c[nH]c(-c2ccc(F)cc2F)c1 [Cpd 412, N-[4-(difluoromethoxy)-2,5-difluorophenyl]-5-(2,4-difluorophenyl)-1H-pyrrole-3-sulfonamide]
23 | < 500 nM | O=S(=O)(Nc1cc(F)c(Br)cc1F)c1c[nH]c(-c2ccccc2F)c1 [Cpd 413, N-(4-bromo-2,5-difluorophenyl)-5-(2-fluorophenyl)-1H-pyrrole-3-sulfonamide]
24 | 500 to 5000 nM | O=S(=O)(Nc1cc(F)c(Br)cc1F)c1c[nH]c(-c2cc(Cl)ccc2F)c1 [Cpd 414, N-(4-bromo-2,5-difluorophenyl)-5-(5-chloro-2-fluorophenyl)-1H-pyrrole-3-sulfonamide]
25 | 500 to 5000 nM | N#CCOc1cc(F)c(NS(=O)(=O)c2c[nH]cc2Cc2ccccc2)cc1F [Cpd 415, 4-benzyl-N-[4-(cyanomethoxy)-2,5-difluorophenyl]-1H-pyrrole-3-sulfonamide]
26 | < 500 nM | N#Cc1cc(F)c(NS(=O)(=O)c2c[nH]cc2Cc2cccs2)cc1F [Cpd 416, N-(4-cyano-2,5-difluorophenyl)-4-(thiophen-2-ylmethyl)-1H-pyrrole-3-sulfonamide]
27 | 500 to 5000 nM | O=S(=O)(Nc1cc(F)c(Br)cc1F)c1c[nH]cc1Cc1cccs1 [Cpd 417, N-(4-bromo-2,5-difluorophenyl)-4-(thiophen-2-ylmethyl)-1H-pyrrole-3-sulfonamide]
28 | < 500 nM | O=S(=O)(Nc1cc(F)c(C(F)(F)F)cc1F)c1c[nH]cc1Cc1cccs1 [Cpd 418, N-[2,5-difluoro-4-(trifluoromethyl)phenyl]-4-(thiophen-2-ylmethyl)-1H-pyrrole-3-sulfonamide]
29 | 500 to 5000 nM | O=S(=O)(Nc1cc(OC(F)F)c(Cl)cc1F)c1c[nH]c(-c2ccccn2)c1 [Cpd 419, N-[4-chloro-5-(difluoromethoxy)-2-fluorophenyl]-5-pyridin-2-yl-1H-pyrrole-3-sulfonamide]
30 | < 500 nM | Cc1ccc(-c2c[nH]cc2S(=O)(=O)Nc2ccc(C#N)cc2F)s1 [Cpd 420, N-(4-cyano-2-fluorophenyl)-4-(5-methylthiophen-2-yl)-1H-pyrrole-3-sulfonamide]
31 | 500 to 5000 nM | N#Cc1ccc(NS(=O)(=O)c2c[nH]c(C3CCCCC3)c2)c(F)c1 [Cpd 421, N-(4-cyano-2-fluorophenyl)-5-cyclohexyl-1H-pyrrole-3-sulfonamide]
32 | < 500 nM | COc1nc(Cl)c(F)cc1NS(=O)(=O)c1c[nH]c(-c2ccccc2)c1 [Cpd 422, N-(6-chloro-5-fluoro-2-methoxypyridin-3-yl)-5-phenyl-1H-pyrrole-3-sulfonamide]
33 | 500 to 5000 nM | O=S(=O)(Nc1cc(F)c(C(F)(F)F)cc1F)c1c[nH]c(C2CCCCC2)c1 [Cpd 423, 5-cyclohexyl-N-[2,5-difluoro-4-(trifluoromethyl)phenyl]-1H-pyrrole-3-sulfonamide]
34 | 500 to 5000 nM | O=S(=O)(Nc1cc(F)c(C(F)(F)F)cc1F)c1c[nH]c(C2CCOC2)c1 (centres unmarked) [Cpd 424, N-[2,5-difluoro-4-(trifluoromethyl)phenyl]-5-(oxolan-3-yl)-1H-pyrrole-3-sulfonamide]
35 | 500 to 5000 nM | O=S(=O)(Nc1cc(OC(F)F)c(Cl)cc1F)c1c[nH]cc1-c1cccc(F)c1 [Cpd 425, N-[4-chloro-5-(difluoromethoxy)-2-fluorophenyl]-4-(3-fluorophenyl)-1H-pyrrole-3-sulfonamide]
36 | 500 to 5000 nM | O=S(=O)(Nc1cc(OC(F)F)c(Cl)cc1F)c1c[nH]cc1Cc1ccccc1 [Cpd 426, 4-benzyl-N-[4-chloro-5-(difluoromethoxy)-2-fluorophenyl]-1H-pyrrole-3-sulfonamide]
37 | 500 to 5000 nM | COc1nc(Cl)c(F)cc1NS(=O)(=O)c1c[nH]cc1Cc1ccccc1 [Cpd 427, 4-benzyl-N-(6-chloro-5-fluoro-2-methoxypyridin-3-yl)-1H-pyrrole-3-sulfonamide]
38 | 500 to 5000 nM | COc1nc(Cl)c(F)cc1NS(=O)(=O)c1c[nH]cc1-c1cccc(F)c1 [Cpd 428, N-(6-chloro-5-fluoro-2-methoxypyridin-3-yl)-4-(3-fluorophenyl)-1H-pyrrole-3-sulfonamide]
39 | 500 to 5000 nM | COc1cc(OC(F)F)cnc1NS(=O)(=O)c1c[nH]c(-c2ccccc2)c1 [Cpd 429, N-[5-(difluoromethoxy)-3-methoxypyridin-2-yl]-5-phenyl-1H-pyrrole-3-sulfonamide]
40 | < 500 nM | O=S(=O)(Nc1cc(F)c(C(F)(F)F)cc1F)c1c[nH]c(C2CCC2)c1 [Cpd 430, 5-cyclobutyl-N-(2,5-difluoro-4-(trifluoromethyl)phenyl)-1H-pyrrole-3-sulfonamide]
41 | 5000 to 50000 nM | COc1nc(Br)cnc1NS(=O)(=O)c1c[nH]cc1Cc1ccccc1 [Cpd 431, 4-benzyl-N-(5-bromo-3-methoxypyrazin-2-yl)-1H-pyrrole-3-sulfonamide]
